A short description of the series: in vitro. The note with it: PAMPA.

Description: Permeability of compound at 12.5 uM incubated for 4 hrs by GIT PAMPA assay

What is called Papp is the rate of passage across a membrane or cell layer, normalised by area and donor concentration. Regarding `CCn1cnc2c(NCc3ccc(-c4ccoc4)nc3)nc(-c3cccnc3)nc21`, the Papp at 4 h, 12.5 µM worked out at 72.4 ×10⁻⁶ cm/s.

Source of the values: ChEMBL document CHEMBL5537138, “Identification of a novel potent CDK inhibitor degrading cyclinK with a superb activity to reverse trastuzumab-resistance in HER2-positive breast cancer in vivo” (Eur J Med Chem, 2024).
